Legend:
[1] = Neutron reflectometry (NR) of tethered POPC / POPC-d31 lipid bilayer membranes incubated with the substance and after rinse; assay type: physicochemical; conditions: for Peak of avobenzone CVO from bilayer center / Surface volume density: co-refined POPC-d31 and POPC
Procedure: The interaction of avobenzone and calix[8]-PO3H2 was tested with single-membrane POPC (1-palmitoyl-2-oleoyl-sn-glycero-3-phosphocholine) tethered lipid bilayer membranes (tBLMs). Solvent-immersed tBLMs allowed for a characterization of the membrane before and after addition of avobenzone and calix[8]-PO3H2 from solution, thus mimicking the encounter of those substances by the membrane in the body. This differentiates tBLMs from conventionally used stacked lipid bilayer model systems in air. The chemical structure of the glycerophospholipid POPC consists of a zwitterionic phosphatidylcholine headgroup linked to a glycerol, which is ester-bound to two fatty acid groups—palmitic acid (C16:0) and oleic acid (C18:1). This fatty acid composition mimics that of phospholipids mainly found in the eukaryotic cell membrane, including keratinocytes. In addition to phospholipids, native eukaryotic membranes also contain glycolipids, sterols and various proteins, which are not included in the current simplified model system.
Neutron Reflectometry (NR) experiments were conducted with hydrogenated and deuterated POPC bilayers. Both data sets were simultaneously analyzed to obtain one structural model. NR measurements were performed with the CGD-Magik reflectometer at the NIST Center for Neutron Research (NCNR). Reflectivity curves were recorded for momentum transfer values 0.01≤qz≤0.25 Å^−1. For each measurement, adequate counting statistics were obtained after 5-7 h. The NCNR fluids cell allows for in situ solvent exchange; therefore, subsequent measurements were performed on the same sample area. The entire flow cell was maintained at room temperature (RT). Solvent exchange was accomplished by rinsing ˜10 ml of water through the cell (volume ˜1.3 ml) using a syringe.
A set of NR experiments was conducted with a hydrogenated POPC bilayer and another identical set of experiments with a deuterated POPC-d31 bilayer. After measurement of the as-prepared bilayer in H2O and D2O, avobenzone was added to the sample cell at a concentration of 100 μM dissolved in H2O and D2O. NR measurements were conducted while the bilayer was in contact with either solution. The sample was measured again after rinsing with H2O and D2O, respectively. Data for both bilayers were co-refined sharing conserved model parameters across data sets, in particular those associated with the volume profile of avobenzone. […] An identical set of measurements were performed with a 100 μM complex of 1:1 avobenzone:calix[8]-PO3H2 instead of pure avobenzone.
1D-component volume occupancy (CVO) profiles along the lipid bilayer normal were obtained. Bilayer fit parameters were the hydrocarbon thickness for each bilayer subsection, the bilayer completeness, and the thickness of the sub-membrane space. One roughness parameter was applied to all distributions. The thin layer of native silicon oxide was modelled by a single distribution with individual roughness and thickness parameters. Hermite splines defined by control points that were on average 15 Å apart were used to model the CVO profiles of avobenzone and calix[8]-PO3H2. The number of control points was iteratively refined during model optimization for each CVO profile. Fit parameters associated with each control point were a volume occupancy, a deviation from equidistant separation, and (for the CVO profile of the complex) a nSLD (neutron scattering length density) value between those of avobenzone and calix[8]-PO3H2. Such a variable nSLD per control point allowed us to separate individual CVO profiles for avobenzone (average nSLD ρ=1.37×10^−6 Å^−2) and calix[8]-PO3H2 (ρ=2.73×10^−6 […]). The exchange of labile protons in isotopically different buffers affects the nSLD of molecular components and was taken into account during data analysis. Optimization of model parameters was performed using the ga_refl and Refl1D software packages developed at the NCNR. […]

[2] = once exposed to sun; cited from earlier work
[3] = system: rat cell lines; conditions: cited from earlier work
[4] = system: human cell lines; conditions: cited from earlier work
[5] = avobenzone alone, 100 μM incubation

With `COc1ccc(C(=O)CC(=O)c2ccc(C(C)(C)C)cc2)cc1` [avobenzone, 1-(4-methoxyphenyl)-3-(4-tertbutylphenyl)-propane-1,3-dione] the “Peak of avobenzone CVO from bilayer center” value [1, 5] was 10±3 Å, the Surface volume density [1, 5] was 3.0±0.5 Å^3/Å^2 and the “1 avobenzone per n lipids in outer leaflet” value ([1]; avobenzone alone, Rinse) was ~1 avobenzone per 2.1 lipids in outer leaflet. For the same compound, the “Peak of avobenzone CVO from bilayer center” value ([1]; avobenzone alone, Rinse) was 7±3 Å, the Surface volume density ([1]; avobenzone alone, Rinse) was 3.8±0.4 Å^3/Å^2 and the “Penetration of the lipid bilayer (in words)” value ([1]; interacts at hydrocarbon/headgroup interface of the substrate-distal leaflet) was “without penetrating the bilayer to the substrate-proximal leaflet”. The Duration of photoprotection [2] was 30 min.

For `O=P(O)(O)c1cc2c(O)c(c1)Cc1cc(P(=O)(O)O)cc(c1O)Cc1cc(P(=O)(O)O)cc(c1O)Cc1cc(P(=O)(O)O)cc(c1O)Cc1cc(P(=O)(O)O)cc(c1O)Cc1cc(P(=O)(O)O)cc(c1O)Cc1cc(P(=O)(O)O)cc(c1O)Cc1cc(P(=O)(O)O)cc(c1O)C2` [calix[8]-PO3H2, p-phosphonated calix[8]arene], the “Toxicity towards rat cell lines” value [3] is listed as “non-toxic” and the “Toxicity towards human cell lines” value [4] is listed as “non-toxic”.
